# Measurements as given in patent publication US20230404998A1, “Combination Therapies for Treating Cancer” (ASCENTAGE PHARMA (SUZHOU) CO., LTD., priority 2020, published 2023).
# “Also recorded” adds a separate entry of the source. Marks after values point to notes of the source that are not given here.
# How the values were obtained:
# VEGFR3 = VEGFR3 (Homo sapiens, UniProt P35916); test: Cell-free kinase assay VEGFR3; assay type: biochemical
# [1] = molecular target: BaF3(Bcr-Abl) T315I-E459K (Homo sapiens, UniProt P00519, T315I/E459K, cells depend on it); settings: read-out: Anti-proliferation (IC50)
# Experimental: (§1) The anti-proliferative effect was determined by a water-soluble tetrazolium (WST)-based assay using Cell Counting Kit-8 (CCK-8, #D3100L4057, Shanghai life ilab bio technology co., LTD, China). Cells were seeded in 96-well plates and treated with different concentrations of test articles. […] Each treatment was tested in triplicates. The plate was then cultured at 37° C. with 5% CO2 for 72 hours. At the end of treatments, 20 μl/well of CCK-8 reagent was directly added to each wells. The plate was then incubated at 37° C. with 5% CO2 for 2-4 h. The OD value was detected at 450 nm on a microplate reader (SpectraMax I3X, Molecular Devices, US). IC50 values were calculated with Graphpad Prism 7.0 software using nonlinear regression (curve fitting) type data analysis. For combination effect assay, the cells viability was normalized using the mean OD value of triplicated wells for the single agent control.
# BaF3(Bcr-Abl) F359V = BaF3(Bcr-Abl) F359V (Homo sapiens, UniProt P00519, F359V, cells depend on it); settings: read-out: Anti-proliferation (IC50)
# Experimental: as §1
# [2] = molecular target: BaF3(Bcr-Abl) T315I-H396R (Homo sapiens, UniProt P00519, T315I/H396R, cells depend on it); settings: read-out: Anti-proliferation (IC50)
# Experimental: as §1
# [3] = molecular target: BaF3(Bcr-Abl) T315I-Y253H (Homo sapiens, UniProt P00519, Y253H/T315I, cells depend on it); settings: read-out: Anti-proliferation (IC50)
# Experimental: as §1
# BaF3(Bcr-Abl) G250E = BaF3(Bcr-Abl) G250E (Homo sapiens, UniProt P00519, G250E, cells depend on it); settings: read-out: Anti-proliferation (IC50)
# Experimental: as §1
# [4] = molecular target: BaF3(Bcr-Abl) G250E-V299L (Homo sapiens, UniProt P00519, G250E/V299L, cells depend on it); settings: read-out: Anti-proliferation (IC50)
# Experimental: as §1
# [5] = molecular target: BaF3(Bcr-Abl) F317L-M351T (Homo sapiens, UniProt P00519, F317L/M351T, cells depend on it); settings: read-out: Anti-proliferation (IC50)
# Experimental: as §1
# FGFR = test: Phosphorylation of FGFR and downstream proteins in cancer cells; assay type: cell-based
# VEGFR1 = VEGFR1 (Homo sapiens, UniProt P17948); test: Cell-free kinase assay VEGFR1; assay type: biochemical
# [6] = test system: F317L/T315I orthotopic tumor model; test: In vivo efficacy, F317L/T315I orthotopic tumor model; design: species or system mouse; settings: ABL001 60 mg/kg, Ponatinib 20 mg/kg, HQP1351 20 mg/kg
# Experimental: (§2) In vivo efficacy was evaluated using the syngeneic mouse model derived from BaF3 cells with T315I and/or compound mutations. Tumor models were established by intravenously injecting tumor cells (1×10^5/mouse) into the caudal vein under sterile conditions. Mice were randomized into control and treatment groups with 8-10 mice per group and start the treatment from the second day post inoculation. The animal body weights were measured twice a week. The antitumor activity curves of test articles were plotted with the treatment time (day) on the X-axis, and corresponding survival rate on the Y-axis. A Log-rank (Mental-cox) test was employed to analyze the statistical significance of any difference between the treatment group and the control group. Prism version 7 (GraphPad Software Inc., San Diego, CA) was used for all statistical analysis and for graphic presentation.
# [7] = test system: T315I orthotopic tumor model; test: In vivo efficacy, T315I orthotopic tumor model; design: species or system mouse; settings: ABL001 60 mg/kg, Ponatinib 20 mg/kg, HQP1351 20 mg/kg
# Experimental: as §2
# [8] = test system: p-SRC and PD-L1 expression in H460 and A549 cells; test: Western blot / RT-PCR of p-SRC and PD-L1 expression in NSCLC cell lines; assay type: cell-based, human
# Experimental: Cells were treated with the indicated concentrations and washed twice with cold PBS. Whole cell extracts were collected in RIPA lysis buffer (Santa Cruz Biotechnology, Germany), and protein concentration of the lysates was measured using a BCA Protein Assay Kit (ThermoFisher, USA). The protein samples were electrophoresed through a 10% SDS-PAGE gel and transferred to a polyvinylidene difluoride (PVDF) membrane (Roche, USA). After blocking, membranes were probed with primary antibodies (1:1000) against SRC, p-SRC, PD-L1, GAPDH, 0-tubulin (Cell Signaling Technology, USA) followed by washing and incubation with a secondary antibody (1:5000) conjugated to horseradish peroxidase (Santa Cruz Biotechnology, USA). Protein bands were visualized by applying a chemiluminescent reagent (Pierce ECL kit, Thermo Fisher Scientific, USA) and protein level were quantified by Image Lab (Bio-Rad Laboratory, USA).
# Total cellular RNA was extracted by Trizol (Invitrogen, USA) for mRNA analysis. RNA was reverse-transcribed to cDNA profile through using the Transcriptor First Strand cDNA Synthesis kit (Roche Applied Science, USA) and then Real time PCR reactions were performed using the FastStart SYBR Green Master (ROX) reagent (Roche Applied Science, USA) according to the manufacturer's instructions. […]
# [9] = test system: E255V/T315I orthotopic tumor model; test: In vivo efficacy, E255V/T315I orthotopic tumor model; design: species or system mouse; settings: ABL001 60 mg/kg, Ponatinib 20 mg/kg, HQP1351 20 mg/kg
# Experimental: as §2
# [10] = test system: VEGFR, SRC, Akt and extracellular signal-regulated kinases in vascular endothelial cells; test: Phosphorylation of VEGFR, SRC and downstream proteins in vascular endothelial cells; assay type: cell-based
# RAG = test: Antiproliferative activity in RCC line RAG; assay type: cell-based; settings: Mus musculus; murine RCC line RAG
# PD-L1 in RCC cells = test: PD-L1 expression in RCC cells; assay type: cell-based
# VEGFR2 = VEGFR2 (Homo sapiens, UniProt P35968); test: Cell-free kinase assay VEGFR2; assay type: biochemical
# [11] = molecular target: T1, BCR-ABL single or compound mutations (BaF3 cells) (Homo sapiens, UniProt P00519, cells depend on it, form not given); test: Cell based anti-proliferation studies, BaF3 cells with BCR-ABL single or compound mutations (summary); design: species or system murine
# T1 construct: fused on or other part: P11274 (Breakpoint cluster region protein)
# Experimental: as §1
# A series of cell lines expressing BCR-ABL single or compound mutations were constructed based on BaF3 murine pro-B cell line.
# Ph+ ALL SUP-B15 cells = test: Cell viability assay (Cell-Titer Glo) in leukemia cell lines; assay type: cell-based; settings: 72 hours
# Experimental: After treatment, cell viability was measured by Promega© Cell-Titer Glo®3D Cell Viability Assay luminescence assay kit according to instructions from the manufacturer (Promega, Madison, WI, USA, Cat #G7571). Luminescence signal was detected using a BioTek Synergy H1 Hybrid Multi-Mode (Microplate) Reader (BioTek, Shanghai). Cellular proliferative (i.e. viability) curves were plotted and anti-proliferation IC50 values were calculated using Graphpad Prism version 6.0 software (GraphPad Software, San Diego, CA USA).
# RANCA = test: Antiproliferative activity in RCC line RANCA; assay type: cell-based; settings: Mus musculus; murine RCC line RANCA
# [12] = test system: Y253H/T315I orthotopic tumor model; test: In vivo efficacy, Y253H/T315I orthotopic tumor model; design: species or system mouse; settings: ABL001 60 mg/kg, Ponatinib 20 mg/kg, HQP1351 20 mg/kg
# Experimental: as §2
# RANCA tumor tissues = test: Tumor-infiltrating lymphocyte assays in RANCA tumor tissues; assay type: in vivo, mouse
# Sequence of VEGFR3 (P35916 25-1363): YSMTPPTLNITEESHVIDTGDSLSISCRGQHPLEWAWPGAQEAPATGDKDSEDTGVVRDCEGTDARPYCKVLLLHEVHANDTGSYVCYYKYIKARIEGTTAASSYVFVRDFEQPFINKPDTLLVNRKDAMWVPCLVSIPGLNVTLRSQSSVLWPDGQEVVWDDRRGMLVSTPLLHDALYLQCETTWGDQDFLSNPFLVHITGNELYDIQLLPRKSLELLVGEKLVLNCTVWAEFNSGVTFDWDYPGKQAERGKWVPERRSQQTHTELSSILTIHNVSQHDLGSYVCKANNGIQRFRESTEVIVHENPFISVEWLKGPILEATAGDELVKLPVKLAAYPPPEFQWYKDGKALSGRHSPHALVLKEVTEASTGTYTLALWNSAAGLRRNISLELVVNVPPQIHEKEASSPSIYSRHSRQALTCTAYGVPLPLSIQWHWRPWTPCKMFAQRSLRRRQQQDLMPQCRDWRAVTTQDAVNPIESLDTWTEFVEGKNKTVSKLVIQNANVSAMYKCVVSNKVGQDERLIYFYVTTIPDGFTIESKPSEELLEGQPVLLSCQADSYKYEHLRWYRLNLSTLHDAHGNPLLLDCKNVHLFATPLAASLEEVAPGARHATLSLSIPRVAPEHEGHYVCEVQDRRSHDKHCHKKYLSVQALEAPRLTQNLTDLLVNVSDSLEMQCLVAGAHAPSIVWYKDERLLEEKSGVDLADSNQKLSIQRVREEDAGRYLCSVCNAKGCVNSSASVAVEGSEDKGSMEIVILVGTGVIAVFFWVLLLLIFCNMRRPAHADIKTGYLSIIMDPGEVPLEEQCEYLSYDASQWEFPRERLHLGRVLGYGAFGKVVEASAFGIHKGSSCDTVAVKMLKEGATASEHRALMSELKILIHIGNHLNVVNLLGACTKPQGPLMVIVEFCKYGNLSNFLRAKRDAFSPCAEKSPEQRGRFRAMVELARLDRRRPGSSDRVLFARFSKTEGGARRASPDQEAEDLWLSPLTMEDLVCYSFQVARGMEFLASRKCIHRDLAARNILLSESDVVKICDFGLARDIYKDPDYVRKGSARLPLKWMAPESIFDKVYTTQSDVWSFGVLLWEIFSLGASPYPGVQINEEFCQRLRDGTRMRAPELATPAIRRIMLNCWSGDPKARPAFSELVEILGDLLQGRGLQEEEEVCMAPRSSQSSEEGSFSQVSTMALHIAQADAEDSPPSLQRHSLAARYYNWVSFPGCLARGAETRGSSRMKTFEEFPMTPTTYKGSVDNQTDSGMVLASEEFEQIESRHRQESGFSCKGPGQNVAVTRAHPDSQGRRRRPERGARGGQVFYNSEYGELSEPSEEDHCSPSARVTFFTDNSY
# Sequence of VEGFR1 (P17948 27-1338, species assumed): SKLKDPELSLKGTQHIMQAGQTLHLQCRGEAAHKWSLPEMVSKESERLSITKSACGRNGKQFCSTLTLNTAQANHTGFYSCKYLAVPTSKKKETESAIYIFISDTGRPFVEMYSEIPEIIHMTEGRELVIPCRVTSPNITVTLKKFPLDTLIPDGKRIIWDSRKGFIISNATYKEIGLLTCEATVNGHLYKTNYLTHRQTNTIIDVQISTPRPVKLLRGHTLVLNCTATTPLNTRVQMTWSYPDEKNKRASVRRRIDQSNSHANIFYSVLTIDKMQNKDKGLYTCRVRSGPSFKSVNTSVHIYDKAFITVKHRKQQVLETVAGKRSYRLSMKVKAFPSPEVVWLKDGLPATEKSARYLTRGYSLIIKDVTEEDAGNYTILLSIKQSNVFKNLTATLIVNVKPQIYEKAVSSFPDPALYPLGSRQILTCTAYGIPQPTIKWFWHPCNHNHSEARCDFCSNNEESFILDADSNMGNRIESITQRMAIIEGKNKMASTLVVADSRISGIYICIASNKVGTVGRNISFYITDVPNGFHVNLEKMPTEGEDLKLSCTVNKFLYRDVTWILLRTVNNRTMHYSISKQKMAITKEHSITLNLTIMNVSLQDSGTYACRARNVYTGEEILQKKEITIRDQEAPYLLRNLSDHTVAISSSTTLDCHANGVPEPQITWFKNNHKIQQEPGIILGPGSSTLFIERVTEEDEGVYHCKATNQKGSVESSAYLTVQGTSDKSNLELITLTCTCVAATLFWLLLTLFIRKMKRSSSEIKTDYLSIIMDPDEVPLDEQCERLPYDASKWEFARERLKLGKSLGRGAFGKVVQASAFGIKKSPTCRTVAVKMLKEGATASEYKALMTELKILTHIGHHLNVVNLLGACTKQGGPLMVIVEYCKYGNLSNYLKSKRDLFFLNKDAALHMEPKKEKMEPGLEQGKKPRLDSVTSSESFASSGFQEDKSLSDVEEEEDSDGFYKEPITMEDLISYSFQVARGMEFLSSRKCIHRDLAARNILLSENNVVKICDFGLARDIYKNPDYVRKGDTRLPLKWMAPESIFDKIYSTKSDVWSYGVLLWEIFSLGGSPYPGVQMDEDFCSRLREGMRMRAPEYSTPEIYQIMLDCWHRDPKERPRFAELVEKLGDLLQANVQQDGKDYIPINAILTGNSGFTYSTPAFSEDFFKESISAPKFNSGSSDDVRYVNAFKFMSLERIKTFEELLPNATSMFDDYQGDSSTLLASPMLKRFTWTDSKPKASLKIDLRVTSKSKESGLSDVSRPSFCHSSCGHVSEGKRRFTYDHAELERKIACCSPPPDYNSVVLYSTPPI
# Sequence of VEGFR2 (P35968 20-1356): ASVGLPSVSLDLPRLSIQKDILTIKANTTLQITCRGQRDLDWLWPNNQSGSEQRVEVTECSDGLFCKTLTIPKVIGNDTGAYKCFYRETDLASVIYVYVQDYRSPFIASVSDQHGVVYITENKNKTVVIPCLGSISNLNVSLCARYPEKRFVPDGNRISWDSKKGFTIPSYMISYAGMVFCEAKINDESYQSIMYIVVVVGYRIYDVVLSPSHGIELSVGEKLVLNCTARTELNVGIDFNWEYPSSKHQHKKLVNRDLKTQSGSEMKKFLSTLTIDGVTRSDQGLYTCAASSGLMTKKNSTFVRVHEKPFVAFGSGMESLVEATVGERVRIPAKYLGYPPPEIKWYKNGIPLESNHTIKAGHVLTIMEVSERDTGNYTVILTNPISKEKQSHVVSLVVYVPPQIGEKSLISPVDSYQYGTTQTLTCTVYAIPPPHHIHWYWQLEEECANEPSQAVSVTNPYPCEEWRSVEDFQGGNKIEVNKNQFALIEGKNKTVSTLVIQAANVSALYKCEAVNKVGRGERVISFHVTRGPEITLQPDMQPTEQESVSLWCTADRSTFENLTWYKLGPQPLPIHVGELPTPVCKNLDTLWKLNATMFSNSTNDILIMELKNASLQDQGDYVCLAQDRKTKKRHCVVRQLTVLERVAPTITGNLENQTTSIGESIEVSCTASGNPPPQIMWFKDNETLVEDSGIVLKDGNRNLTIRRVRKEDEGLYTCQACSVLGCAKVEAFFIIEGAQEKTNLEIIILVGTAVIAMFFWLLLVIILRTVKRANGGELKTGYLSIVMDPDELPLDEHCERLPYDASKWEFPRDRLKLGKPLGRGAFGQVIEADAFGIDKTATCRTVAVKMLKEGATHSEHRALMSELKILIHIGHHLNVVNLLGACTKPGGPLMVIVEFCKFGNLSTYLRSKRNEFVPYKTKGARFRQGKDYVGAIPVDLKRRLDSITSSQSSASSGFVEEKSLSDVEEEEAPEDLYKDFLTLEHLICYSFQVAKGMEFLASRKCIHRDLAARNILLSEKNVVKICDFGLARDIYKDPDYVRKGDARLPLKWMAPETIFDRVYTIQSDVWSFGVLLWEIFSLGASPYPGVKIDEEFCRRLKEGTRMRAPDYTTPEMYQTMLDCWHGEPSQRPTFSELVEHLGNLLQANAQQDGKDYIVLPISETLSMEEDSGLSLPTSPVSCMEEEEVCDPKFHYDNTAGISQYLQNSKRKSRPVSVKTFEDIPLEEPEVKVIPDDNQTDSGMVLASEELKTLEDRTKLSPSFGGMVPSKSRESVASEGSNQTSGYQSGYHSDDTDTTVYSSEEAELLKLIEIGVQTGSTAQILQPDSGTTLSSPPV
structure (smiles),measurement,setting,value
"Cc1ccc(C(=O)Nc2ccc(CN3CCN(C)CC3)c(C(F)(F)F)c2)cc1C#Cc1cnc2[nH]ncc2c1 [HQP1351, 3-(2-(1H-pyrazolo[3,4-b]pyridin-5-yl)ethynyl)-4-methyl-N-(4-((4-methylpiperazin-1-yl)methyl)-3-(trifluoromethyl)phenyl)-benzamide]",IC50,VEGFR3,4.1 nM
same,GI50,[1],109 ± 4 nM
same,GI50,BaF3(Bcr-Abl) F359V,50 ± 16 nM
same,GI50,[2],79 ± 54 nM
same,GI50,[3],114 ± 1 nM
same,GI50,BaF3(Bcr-Abl) G250E,29 ± 4 nM
same,GI50,[4],14 ± 2 nM
same,GI50,[5],32 ± 25 nM
same,Phosphorylation of FGFR and downstream proteins,FGFR,inhibiting phosphorylation of FGFR and downstream proteins
same,IC50,VEGFR1,4.2 nM
same,Median survival,[6],25.0****^$
same,Survival prolongation (%),[6],42.86%
same,Survive/Total @ 24,[6],0/8
same,Median survival,[7],27.0****
same,Survival prolongation (%),[7],28.57%
same,Survive/Total @ D43,[7],0/10
same,PD-L1 and p-SRC levels at different time points,[8]; 2 μM HQP-1351,time-dependent suppression of PD-L1 and p-SRC levels
same,"PD-L1 expression and p-SRC phosphorylation, differing concentrations","[8]; NSCLC cell lines, 24 h, Western blot",decreased PD-L1 expression as well as p-SRC phosphorylation in a concentration-dependent manner
same,Median survival,[9],27.0****
same,Survival prolongation (%),[9],28.57%
same,Survive/Total @ D26,[9],0/10
same,"Phosphorylation of VEGFR, SRC, and downstream proteins Akt and extracellular signal-regulated kinases",[10],"inhibiting phosphorylation of VEGFR, SRC, and downstream proteins"
same,IC50,RAG,53 nM
same,Expression of PD-L1 in RCC cells,PD-L1 in RCC cells,reduced expression of PD-L1
same,IC50,VEGFR2,6.1 nM
same,Anti-proliferative effectiveness against compound mutations compared with other TKIs,[11]; BCR-ABL compound mutations,"more effective than ponatinib, asciminib and other TKIs"
same,GI50,"[11]; read-out: IC50 values toward BCR-ABL single or compound mutations, range over BaF3 BCR-ABL mutant cell lines",6 to 300 nM
same,Proliferation of Ph+ leukemia cells including SUP-B15,Ph+ ALL SUP-B15 cells,selectively inhibited the proliferation of Ph+ cells; also recorded: potently inhibits the proliferation
same,IC50,RANCA,141 nM
same,Median survival,[12],18.5
same,Survival prolongation (%),[12],8.82%
same,Survive/Total @ 24,[12],0/8
same,Immune cell numbers in RANCA tumor tissues,RANCA tumor tissues,"increased numbers of cytotoxic T cells (CTL, CD8^+) and natural-killer cells"
